The structures appear in SMILES notation.

A short description of data set [1]: Stability study of Atazanavir and Ritonavir tablet. The class given is physicochemical. From the text: Stability study data of Atazanavir and Ritonavir tablet: [table]
For data set [2] the following is noted: manufactured in solid dosage form such as tablet; U.S. Pat. No. 6,458,818; cited from earlier work.

Turning to `COC(=O)N[C@H](C(=O)N[C@@H](Cc1ccccc1)[C@@H](O)CN(Cc1ccc(-c2ccccn2)cc1)NC(=O)[C@@H](NC(=O)OC)C(C)(C)C)C(C)(C)C` [Atazanavir], the “Assay (%) (Limit 90-110% of Labelled amount)” value came to 99.0% in data set [1] (25° C./60% RH, 2 M); 98% in data set [1] (40° C./75% RH, 2 M); 100.3% in data set [1] (Initial).
`CC(C)c1nc(CN(C)C(=O)N[C@H](C(=O)N[C@@H](Cc2ccccc2)C[C@H](O)[C@H](Cc2ccccc2)NC(=O)OCc2cncs2)C(C)C)cs1` [Ritonavir]: the oral bioavailability entry in data set [2] is “poor”. Also, the “Assay (%) (Limit 90-110% of Labelled amount)” value in data set [1] (25° C./60% RH, 2 M) worked out at 99.3%; in data set [1] (40° C./75% RH, 2 M), 96%; in data set [1] (Initial), 99.5%.

The record behind these values is patent US20100285115A1, “Novel Antiretroviral Combination” (CIPLA LIMITED, priority 2007, published 2010).
